From patent publication US10844032B2, “Substituted benzofuran, benzothiophene and indole Mcl-1 inhibitors” (Vanderbilt University, priority 2012, dated 2020)

target: recombinant Mcl-1 (residues 172-327) (Homo sapiens (Human), UniProt Q07820); experiment: Bak peptide fluorescence polarization anisotropy competition assay, Mcl-1; assay type: binding; conditions: Table 2, Ki range; FITC-Bak peptide 10 nM, Mcl-1 14 nM; read-out: Ki for inhibition of Mcl-1
Sequence (Q07820 172-327): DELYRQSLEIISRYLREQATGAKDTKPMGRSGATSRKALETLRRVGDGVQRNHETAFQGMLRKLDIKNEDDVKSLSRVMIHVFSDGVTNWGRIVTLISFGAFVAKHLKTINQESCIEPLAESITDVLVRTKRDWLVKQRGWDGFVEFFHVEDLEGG

`Cc1cccc(S(=O)(=O)NC(=O)c2[nH]c3c(-c4c(CO)nn(C)c4C)cccc3c2CCCOc2cc(C)c(Cl)c(C)c2)c1` [Example 204, 3-(3-(4-chloro-3,5-dimethylphenoxy)propyl)-7-(3-(hydroxymethyl)-1,5-dimethyl-1H-pyrazol-4-yl)-N-(m-tolylsulfonyl)-1H-indole-2-carboxamide] and `Cc1cc(OCCCc2c(C(=O)NS(=O)(=O)c3ccccc3)[nH]c3c(-c4ccncc4C(F)(F)F)cccc23)cc(C)c1Cl` [Example 104, 3-(3-(4-chloro-3,5-dimethylphenoxy)propyl)-N-(phenylsulfonyl)-7-(3-(trifluoromethyl)pyridin-4-yl)-1H-indole-2-carboxamide] cannot be ordered by Ki: at most 100 nM for the first, at most 100 nM for the second.

`Cc1cc(OCCCc2c(C(=O)NS(=O)(=O)CCNC(=O)c3cccc(C(F)(F)F)c3)[nH]c3cc(Cl)ccc23)cc(C)c1Cl` [Example 255, 6-chloro-3-(3-(4-chloro-3,5-dimethylphenoxy)propyl)-N-((2-(3-(trifluoromethyl)benzamido)ethyl)sulfonyl)-1H-indole-2-carboxamide] and `Cc1cc(OCCCc2c(C(=O)NS(=O)(=O)CCNC(=O)CCc3ccccc3)[nH]c3cc(Cl)ccc23)cc(C)c1Cl` [Example 230, 6-chloro-3-(3-(4-chloro-3,5-dimethylphenoxy)propyl)-N-((2-(3-phenylpropanamido)ethyl)sulfonyl)-1H-indole-2-carboxamide] cannot be ordered by Ki: at most 100 nM for the first, at most 100 nM for the second.

`Cc1cc(OCCCc2c(C(=O)NS(=O)(=O)CCNC(=O)c3cc(C)n(-c4ccc(F)cc4)c3C)[nH]c3ccccc23)cc(C)c1Cl` [Example 279, 3-(3-(4-chloro-3,5-dimethylphenoxy)propyl)-N-((2-(1-(4-fluorophenyl)-2,5-dimethyl-1H-pyrrole-3-carboxamido)ethyl)sulfonyl)-1H-indole-2-carboxamide] and `Cc1cc(OCCCc2c(C(=O)NS(=O)(=O)c3ccc(C(=O)O)n3C)[nH]c3cc(Cl)ccc23)cc(C)c1Cl` [Example 266, 5-(N-(6-chloro-3-(3-(4-chloro-3,5-dimethylphenoxy)propyl)-1H-indole-2-carbonyl)sulfamoyl)-1-methyl-1H-pyrrole-2-carboxylic acid] cannot be ordered by Ki: at most 100 nM for the first, at most 100 nM for the second.

same assay, conditions: read-out: Ki for inhibition of Mcl-1

Compared with `Cc1cc(OCCCc2c(C(=O)NS(C)(=O)=O)sc3cc(Cl)ccc23)cc(C)c1Cl` [Example 72, 6-chloro-3-(3-(4-chloro-3,5-dimethylphenoxy)propyl)-N-(methylsulfonyl)benzo[b]thiophene-2-carboxamide], `Cc1cc(OCCCc2c(C(=O)NS(C)(=O)=O)n(Cc3cccnc3)c3cc(Cl)ccc23)cc(C)c1Cl` [Example 271, 6-chloro-3-(3-(4-chloro-3,5-dimethylphenoxy)propyl)-N-(methylsulfonyl)-1-(pyridin-3-ylmethyl)-1H-indole-2-carboxamide] is lower in Ki: 1000 to 9990 nM for the first, 301 to 500 nM for the second. The second binds more tightly here.

`Cc1cc(OCCCc2c(C(=O)NS(=O)(=O)CCNC(=O)[C@@H]3Cc4ccccc4N3)[nH]c3ccccc23)cc(C)c1Cl` [Example 168, (S)-3-(3-(4-chloro-3,5-dimethylphenoxy)propyl)-N-((2-(indoline-2-carboxamido)ethyl)sulfonyl)-1H-indole-2-carboxamide] and `Cc1cc(OCCCc2c(C(=O)NS(=O)(=O)CCNC(=O)Cc3c[nH]c4ccccc34)[nH]c3ccccc23)cc(C)c1Cl` [Example 177, N-((2-(2-(1H-indol-3-yl)acetamido)ethyl)sulfonyl)-3-(3-(4-chloro-3,5-dimethylphenoxy)propyl)-1H-indole-2-carboxamide] fall in the same range of Ki: 101 to 299 nM for the first, 101 to 299 nM for the second.

`CS(=O)(=O)NC(=O)c1[nH]c2ccccc2c1CCCOc1ccc(Cl)cc1` [Example 35, 3-(3-(4-chlorophenoxy)propyl)-N-(methylsulfonyl)-1H-indole-2-carboxamide] and `CS(=O)(=O)NC(=O)c1[nH]c2ccccc2c1CCCOc1ccc(Br)cc1` [Example 36, 3-(3-(4-bromophenoxy)propyl)-N-(methylsulfonyl)-1H-indole-2-carboxamide] fall in the same range of Ki: 10000 to 50000 nM for the first, 10000 to 50000 nM for the second.

`Cc1cc(OCCCc2c(C(=O)NS(=O)(=O)CCNC(=O)c3ccoc3C)[nH]c3cc(Cl)ccc23)cc(C)c1Cl` [Example 227, 6-chloro-3-(3-(4-chloro-3,5-dimethylphenoxy)propyl)-N-((2-(2-methylfuran-3-carboxamido)ethyl)sulfonyl)-1H-indole-2-carboxamide] and `Cc1cc(OCCCc2c(C(=O)NS(=O)(=O)CCNC(=O)c3ccoc3C)[nH]c3ccccc23)cc(C)c1Cl` [Example 151, 3-(3-(4-chloro-3,5-dimethylphenoxy)propyl)-N-((2-(2-methylfuran-3-carboxamido)ethyl)sulfonyl)-1H-indole-2-carboxamide] fall in the same range of Ki: 101 to 299 nM for the first, 101 to 299 nM for the second.

`Cc1cc(OCCCc2c(C(=O)NS(=O)(=O)c3ccc(OCc4ccccc4)nc3)[nH]c3cc(Cl)ccc23)cc(C)c1Cl` [Example 225, N-((6-(benzyloxy)pyridin-3-yl)sulfonyl)-6-chloro-3-(3-(4-chloro-3,5-dimethylphenoxy)propyl)-1H-indole-2-carboxamide] and `Cc1cc(OCCCc2c(C(=O)NS(=O)(=O)c3ccncc3)[nH]c3ccccc23)cc(C)c1Cl` [Example 134, 3-(3-(4-chloro-3,5-dimethylphenoxy)propyl)-N-(pyridin-4-ylsulfonyl)-1H-indole-2-carboxamide] fall in the same range of Ki: 301 to 500 nM for the first, 301 to 500 nM for the second.

`Cc1ccccc1-c1cccc2c(CCCOc3cc(C)c(Cl)c(C)c3)c(C(=O)NS(C)(=O)=O)[nH]c12` [Example 84, 3-(3-(4-chloro-3,5-dimethylphenoxy)propyl)-N-(methylsulfonyl)-7-(o-tolyl)-1H-indole-2-carboxamide] and `Cc1cc(OCCCc2c(C(=O)NS(=O)(=O)c3ccccc3)[nH]c3c(-c4ccoc4)cccc23)cc(C)c1Cl` [Example 87, 3-(3-(4-chloro-3,5-dimethylphenoxy)propyl)-7-(furan-3-yl)-N-(phenylsulfonyl)-1H-indole-2-carboxamide] fall in the same range of Ki: 101 to 299 nM for the first, 101 to 299 nM for the second.

`Cc1cc(OCCCc2c(C(=O)NS(=O)(=O)CCNC(=O)CC3CCCCC3)[nH]c3ccccc23)cc(C)c1Cl` [Example 152, 3-(3-(4-chloro-3,5-dimethylphenoxy)propyl)-N-((2-(2-cyclohexylacetamido)ethyl)sulfonyl)-1H-indole-2-carboxamide] and `Cc1cc(OCCCc2c(C(=O)NS(=O)(=O)CCNC(=O)c3cnco3)[nH]c3ccccc23)cc(C)c1Cl` [Example 188, N-(2-(N-(3-(3-(4-chloro-3,5-dimethylphenoxy)propyl)-1H-indole-2-carbonyl)sulfamoyl)ethyl)oxazole-5-carboxamide] fall in the same range of Ki: 1000 to 9990 nM for the first, 1000 to 9990 nM for the second.

First: Cc1ccccc1-c1cccc2c(CCCOc3cccc4ccccc34)c(C(=O)O)sc12 [Example 10, 3-(3-(naphthalen-1-yloxy)propyl)-7-(o-tolyl)benzo[b]thiophene-2-carboxylic acid]
Second: O=C(O)c1sc2ccccc2c1CCc1cccc2ccccc12 [Example 64, 3-(2-(naphthalen-1-yl)ethyl)benzo[b]thiophene-2-carboxylic acid]
The Ki of the first is lower: 101 to 299 nM for the first, 1000 to 9990 nM for the second.

First: Cc1cc(OCCCc2c(C(=O)NS(=O)(=O)CCNC(=O)c3cccn3Cc3ccccc3F)[nH]c3cc(Cl)ccc23)cc(C)c1Cl [Example 248, 6-chloro-3-(3-(4-chloro-3,5-dimethylphenoxy)propyl)-N-((2-(1-(2-fluorobenzyl)-1H-pyrrole-2-carboxamido)ethyl)sulfonyl)-1H-indole-2-carboxamide]
Second: Cc1cc(OCCCc2c(C(=O)NS(=O)(=O)CCCN3C(=O)c4ccccc4C3=O)[nH]c3cc(Cl)ccc23)cc(C)c1Cl [Example 256, 6-chloro-3-(3-(4-chloro-3,5-dimethylphenoxy)propyl)-N-((3-(1,3-dioxoisoindolin-2-yl)propyl)sulfonyl)-1H-indole-2-carboxamide]
The Ki of the first is lower: 101 to 299 nM for the first, 501 to 999 nM for the second. The first binds more tightly here.

First: CS(=O)(=O)NC(=O)c1[nH]c2ccccc2c1CCCOc1cccc2c1CCCC2 [Example 46, N-(methylsulfonyl)-3-(3-((5,6,7,8-tetrahydronaphthalen-1-yl)oxy)propyl)-1H-indole-2-carboxamide]
Second: Cc1cc(OCCCc2c(C(=O)NS(=O)(=O)c3cccc(C(=O)NC4CCOCC4)c3)[nH]c3ccccc23)cc(C)c1Cl [Example 202, 3-(3-(4-chloro-3,5-dimethylphenoxy)propyl)-N-((3-((tetrahydro-2H-pyran-4-yl)carbamoyl)phenyl)sulfonyl)-1H-indole-2-carboxamide]
The Ki of the first is higher: 1000 to 9990 nM for the first, 101 to 299 nM for the second.

First: Cc1cc(OCCCc2c(C(=O)NS(=O)(=O)c3ccc(C(=O)NC4CCOCC4)o3)[nH]c3cc(Cl)ccc23)cc(C)c1Cl [Example 263, 6-chloro-3-(3-(4-chloro-3,5-dimethylphenoxy)propyl)-N-((5-((tetrahydro-2H-pyran-4-yl)carbamoyl)furan-2-yl)sulfonyl)-1H-indole-2-carboxamide]
Second: Cc1cc(OCCCc2c(C(=O)NS(=O)(=O)CCNC(=O)c3cc(F)cc(F)n3)[nH]c3ccccc23)cc(C)c1Cl [Example 191, 3-(3-(4-chloro-3,5-dimethylphenoxy)propyl)-N-((2-(4,6-difluoropicolinamido)ethyl)sulfonyl)-1H-indole-2-carboxamide]
The Ki of the first is lower: 101 to 299 nM for the first, 1000 to 9990 nM for the second. The first binds more tightly here.

`Cc1cc(OCCCc2c(C(=O)NS(=O)(=O)CCN3C(=O)c4ccccc4C3=O)[nH]c3ccccc23)cc(C)c1Cl` [Example 197, 3-(3-(4-chloro-3,5-dimethylphenoxy)propyl)-N-((2-(1,3-dioxoisoindolin-2-yl)ethyl)sulfonyl)-1H-indole-2-carboxamide] and `Cc1cc(OCCCc2c(C(=O)NS(=O)(=O)Cc3ccccc3)sc3ccccc23)cc(C)c1Cl` [Example 70, N-(benzylsulfonyl)-3-(3-(4-chloro-3,5-dimethylphenoxy)propyl)benzo[b]thiophene-2-carboxamide] fall in the same range of Ki: 501 to 999 nM for the first, 501 to 999 nM for the second.

First: Cc1cc(OCCCc2c(C(=O)NS(=O)(=O)c3ccc4ccccc4c3)oc3ccccc23)cc(C)c1Cl [Example 27, 3-(3-(4-chloro-3,5-dimethylphenoxy)propyl)-N-(naphthalen-2-ylsulfonyl)benzofuran-2-carboxamide]
Second: COc1ccc(Oc2cccc(S(=O)(=O)NC(=O)c3[nH]c4ccccc4c3CCCOc3cc(C)c(Cl)c(C)c3)c2)cc1 [Example 142, 3-(3-(4-chloro-3,5-dimethylphenoxy)propyl)-N-((3-(4-methoxyphenoxy)phenyl)sulfonyl)-1H-indole-2-carboxamide]
The Ki of the first is higher: 1000 to 9990 nM for the first, 301 to 500 nM for the second.
